Results published in PubChem BioAssay (NCI).
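48-hour exposure; five concentrations; linearly interpolated endpoints. GI50 marks 50% less growth. The concentration for full growth arrest is given as TGI.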

Assays:
Assay in all cases: inhibition of tumour cell growth, NCI panel, 48 h
COLO 205 colon = test system: COLO 205 colon
UACC-62 melanoma = test system: UACC-62 melanoma
RXF 393 renal = test system: RXF 393 renal
OVCAR-4 ovarian = test system: OVCAR-4 ovarian
MCF7 breast = test system: MCF7 breast
DU-145 prostate = test system: DU-145 prostate
M14 melanoma = test system: M14 melanoma
SK-OV-3 ovarian = test system: SK-OV-3 ovarian
CAKI-1 renal = test system: CAKI-1 renal
SK-MEL-28 melanoma = test system: SK-MEL-28 melanoma
TK-10 renal = test system: TK-10 renal
HT29 colon = test system: HT29 colon
SNB-75 CNS = test system: SNB-75 CNS
A549 NSCLC = test system: A549 NSCLC
HL-60(TB) leukemia = test system: HL-60(TB) leukemia
MOLT-4 leukemia = test system: MOLT-4 leukemia
SN12C renal = test system: SN12C renal
OVCAR-5 ovarian = test system: OVCAR-5 ovarian
MDA-N = test system: MDA-N
PC-3 prostate = test system: PC-3 prostate
NCI-H226 lung = test system: NCI-H226 lung
A498 renal = test system: A498 renal
CCRF-CEM leukemia = test system: CCRF-CEM leukemia
HOP-62 NSCLC = test system: HOP-62 NSCLC
NCI-H522 lung = test system: NCI-H522 lung
SF-268 CNS = test system: SF-268 CNS
IGROV1 ovarian = test system: IGROV1 ovarian
SW-620 colon = test system: SW-620 colon
ACHN renal = test system: ACHN renal
HCT-116 colon = test system: HCT-116 colon
NCI-H460 lung = test system: NCI-H460 lung
KM12 colon = test system: KM12 colon
MDA-MB-231 breast = test system: MDA-MB-231 breast
LOX IMVI melanoma = test system: LOX IMVI melanoma
EKVX NSCLC = test system: EKVX NSCLC
RPMI-8226 leukemia = test system: RPMI-8226 leukemia
HS 578T breast = test system: HS 578T breast
NCI/ADR-RES ovarian = test system: NCI/ADR-RES ovarian
NCI-H23 lung = test system: NCI-H23 lung
SNB-19 CNS = test system: SNB-19 CNS
SR leukemia = test system: SR leukemia
SF-295 CNS = test system: SF-295 CNS
OVCAR-8 ovarian = test system: OVCAR-8 ovarian
SF-539 CNS = test system: SF-539 CNS
SK-MEL-2 melanoma = test system: SK-MEL-2 melanoma
UO-31 renal = test system: UO-31 renal
OVCAR-3 ovarian = test system: OVCAR-3 ovarian
K-562 leukemia = test system: K-562 leukemia
U251 CNS = test system: U251 CNS
MDA-MB-435 = test system: MDA-MB-435
786-0 renal = test system: 786-0 renal
HCC-2998 colon = test system: HCC-2998 colon
HOP-92 NSCLC = test system: HOP-92 NSCLC
UACC-257 melanoma = test system: UACC-257 melanoma
T-47D breast = test system: T-47D breast
BT-549 breast = test system: BT-549 breast
MALME-3M melanoma = test system: MALME-3M melanoma
SK-MEL-5 melanoma = test system: SK-MEL-5 melanoma
HCT-15 colon = test system: HCT-15 colon

O=NNc1ccc(S(=O)c2ccccc2)cn1 (stereo not given)
TGI (COLO 205 colon): > 100 µM | TGI (UACC-62 melanoma): > 100 µM | TGI (RXF 393 renal): > 93.7 µM | TGI (OVCAR-4 ovarian): > 100 µM | TGI (MCF7 breast): > 100 µM | TGI (DU-145 prostate): > 100 µM | TGI (M14 melanoma): > 100 µM | TGI (SK-OV-3 ovarian): > 100 µM | TGI (CAKI-1 renal): > 100 µM | TGI (SK-MEL-28 melanoma): > 100 µM | TGI (TK-10 renal): > 100 µM | TGI (HT29 colon): > 100 µM | TGI (SNB-75 CNS): > 100 µM | TGI (A549 NSCLC): > 100 µM | TGI (HL-60(TB) leukemia): > 100 µM | TGI (MOLT-4 leukemia): > 100 µM | TGI (SN12C renal): > 100 µM | TGI (OVCAR-5 ovarian): > 100 µM | TGI (MDA-N): > 100 µM | TGI (PC-3 prostate): > 100 µM | TGI (NCI-H226 lung): > 100 µM | TGI (A498 renal): > 100 µM | TGI (CCRF-CEM leukemia): > 100 µM | TGI (HOP-62 NSCLC): > 100 µM | TGI (NCI-H522 lung): > 100 µM | TGI (SF-268 CNS): > 100 µM | TGI (IGROV1 ovarian): > 100 µM | TGI (SW-620 colon): > 100 µM | TGI (ACHN renal): > 100 µM | TGI (HCT-116 colon): > 100 µM | TGI (NCI-H460 lung): > 100 µM | TGI (KM12 colon): > 100 µM | TGI (MDA-MB-231 breast): > 100 µM | GI50 (LOX IMVI melanoma): > 100 µM | TGI (LOX IMVI melanoma): > 100 µM | TGI (EKVX NSCLC): > 100 µM | GI50 (RPMI-8226 leukemia): > 100 µM | TGI (RPMI-8226 leukemia): > 100 µM | TGI (HS 578T breast): > 100 µM | TGI (NCI/ADR-RES ovarian): > 100 µM | TGI (NCI-H23 lung): > 100 µM | TGI (SNB-19 CNS): > 100 µM | TGI (SR leukemia): > 100 µM | TGI (SF-295 CNS): > 100 µM | TGI (OVCAR-8 ovarian): > 100 µM | TGI (SF-539 CNS): > 100 µM | GI50 (SK-MEL-2 melanoma): > 100 µM | TGI (SK-MEL-2 melanoma): > 100 µM | TGI (UO-31 renal): > 100 µM | TGI (OVCAR-3 ovarian): > 100 µM | TGI (K-562 leukemia): > 100 µM | TGI (U251 CNS): > 100 µM | GI50 (MDA-MB-435): > 100 µM | TGI (MDA-MB-435): > 100 µM | TGI (786-0 renal): > 100 µM | GI50 (HCC-2998 colon): > 100 µM | TGI (HCC-2998 colon): > 100 µM | GI50 (HOP-92 NSCLC): 12.2 µM | TGI (HOP-92 NSCLC): > 100 µM | TGI (UACC-257 melanoma): > 100 µM | TGI (T-47D breast): > 100 µM | TGI (BT-549 breast): > 100 µM | TGI (MALME-3M melanoma): > 100 µM | TGI (SK-MEL-5 melanoma): > 100 µM | TGI (HCT-15 colon): > 100 µM
